Data reported in US8865623B2, “Herbicidally active cyclic diones and derivatives thereof, processes for their preparation, compositions, and method of controlling weeds” (Syngenta Limited, priority 2009, dated 2014).

Assays:
Assay type in all cases: in vivo
[1] = test system: Echinochloa crus-galli (ECHCG); assay: Post-emergence herbicidal activity, glasshouse pot test; conditions: Echinochloa crus-galli, 312 h, rate 250 g/ha, evaluated after 13 days, glasshouse, read-out: Post-emergence activity ECHCG (100=total damage to plant; 0=no damage to plant)
Outline: (§1)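 After sowing in standard soil, pots were cultivated for one day (pre-emergence) or eight days (post-emergence), then sprayed. Plants were watered twice daily in the glasshouse, and damage was rated 13 days after treatment, 0 being none and 100 total.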

[2] = test system: Alopecurus myosuroides (ALOMY); assay: as above; conditions: Alopecurus myosuroides, 312 h, rate 250 g/ha, evaluated after 13 days, glasshouse, read-out: Post-emergence activity ALOMY (100=total damage to plant; 0=no damage to plant)
Outline: as §1

[3] = test system: Avena fatua (AVEFA); assay: as above; conditions: Avena fatua, 312 h, rate 250 g/ha, evaluated after 13 days, glasshouse, read-out: Post-emergence activity AVEFA (100=total damage to plant; 0=no damage to plant)
Outline: as §1

[4] = test system: Lolium perenne (LOLPE); assay: as above; conditions: Lolium perenne, 312 h, rate 250 g/ha, evaluated after 13 days, glasshouse, read-out: Post-emergence activity LOLPE (100=total damage to plant; 0=no damage to plant)
Outline: as §1

[5] = test system: Echinochloa crus-galli (ECHCG); assay: Pre-emergence herbicidal activity, glasshouse pot test; conditions: Echinochloa crus-galli, 312 h; Rate 250 g/ha; pre-emergence spray; evaluated after 13 days; read-out: Pre-emergence activity ECHCG (100=total damage to plant; 0=no damage to plant)
Outline: as §1

[6] = test system: Alopecurus myosuroides (ALOMY); assay: as above; conditions: Alopecurus myosuroides, 312 h; Rate 250 g/ha; pre-emergence spray; evaluated after 13 days; read-out: Pre-emergence activity ALOMY (100=total damage to plant; 0=no damage to plant)
Outline: as §1

[7] = test system: Avena fatua (AVEFA); assay: as above; conditions: Avena fatua, 312 h; Rate 250 g/ha; pre-emergence spray; evaluated after 13 days; read-out: Pre-emergence activity AVEFA (100=total damage to plant; 0=no damage to plant)
Outline: as §1

[8] = test system: Lolium perenne (LOLPE); assay: as above; conditions: Lolium perenne, 312 h; Rate 250 g/ha; pre-emergence spray; evaluated after 13 days; read-out: Pre-emergence activity LOLPE (100=total damage to plant; 0=no damage to plant)
Outline: as §1

| SMILES | pest or weed control at 250 g/ha [1] [%] | pest or weed control at 250 g/ha [2] [%] | pest or weed control at 250 g/ha [3] [%] | pest or weed control at 250 g/ha [4] [%] | pest or weed control at 250 g/ha [5] [%] | pest or weed control at 250 g/ha [6] [%] | pest or weed control at 250 g/ha [7] [%] | pest or weed control at 250 g/ha [8] [%] |
| --- | --- | --- | --- | --- | --- | --- | --- | --- |
| CCc1ccc(Oc2ccc([N+](=O)[O-])cc2)cc1C1=C(O)C(C)(C)OC(C)(C)C1=O [Example A-195] | 100 | 60 | 60 | 80 | 100 | 30 | 0 | 40 |
| CCc1ccc(Oc2ccc([N+](=O)[O-])c(C#N)c2)cc1C1=C(O)C(C)(C)OC(C)(C)C1=O [Example A-196] | 20 | 0 | 0 | 10 | 0 | 0 | 0 | 0 |
| CCc1ccc(Oc2ccc([N+](=O)[O-])c(C(F)(F)F)c2)cc1C1=C(O)C(C)(C)OC(C)(C)C1=O [Example A-197] | 100 | 70 | 70 | 60 | 30 | 0 | 10 | 20 |
| CCc1ccc(Oc2ccc([N+](=O)[O-])cc2C(F)(F)F)cc1C1=C(O)C(C)(C)OC(C)(C)C1=O [Example A-198] | 100 | 70 | 60 | 70 | 60 | 0 | 0 | 10 |
| CCc1ccc(Oc2ccc([N+](=O)[O-])c(C)c2)cc1C1=C(O)C(C)(C)OC(C)(C)C1=O [Example A-200] | 90 | 70 | 10 | 70 | 50 | 20 | 0 | 60 |
| CCc1ccc(Oc2ccc([N+](=O)[O-])cc2Cl)cc1C1=C(O)C(C)(C)OC(C)(C)C1=O [Example A-201] | 100 | 60 | 60 | 70 | 60 | 10 | 0 | 30 |
| CCc1ccc(Oc2ccc([N+](=O)[O-])cc2C#N)cc1C1=C(O)C(C)(C)OC(C)(C)C1=O [Example A-202] | 60 | 10 | 20 | 30 | 60 | 0 | 0 | 10 |
| CCc1ccc(Oc2ccc(C(F)(F)F)cc2[N+](=O)[O-])cc1C1=C(O)C(C)(C)OC(C)(C)C1=O [Example A-203] | 90 | 90 | 100 | 90 | 50 | 20 | 30 | 90 |
| CCc1ccc(Oc2c(Cl)cc(C(F)(F)F)cc2Cl)cc1C1=C(O)C(C)(C)OC(C)(C)C1=O [Example A-204] | 70 | 60 | 50 | 40 | 20 | 0 | 0 | 10 |
| CCc1ccc(Oc2c(F)cc(C(F)(F)F)cc2F)cc1C1=C(O)C(C)(C)OC(C)(C)C1=O [Example A-205] | 100 | 70 | 60 | 90 | 60 | 20 | 10 | 60 |
| CCc1ccc(Oc2cc(F)cc(F)c2C#N)cc1C1=C(O)C(C)(C)OC(C)(C)C1=O [Example A-206] | 70 | 20 | 30 | 50 | 30 | 0 | 0 | 10 |
| CCc1ccc(Oc2cc(F)c(C#N)c(F)c2)cc1C1=C(O)C(C)(C)OC(C)(C)C1=O [Example A-207] | 100 | 80 | 80 | 90 | 70 | 30 | 10 | 60 |
| CCc1ccc(Oc2ccc(C(F)(F)F)c(C#N)c2)cc1C1=C(O)C(C)(C)OC(C)(C)C1=O [Example A-210] | 100 | 90 | 90 | 100 | 60 | 30 | 10 | 20 |
| CCc1ccc(Oc2nc3ccc(OC)cc3s2)cc1C1=C(O)C(C)(C)OC(C)(C)C1=O [Example A-214] | 100 | 100 | 70 | 100 | 90 | 50 | 30 | 40 |
| CCc1ccc(Oc2nc3cc4c(cc3s2)OCCO4)cc1C1=C(O)C(C)(C)OC(C)(C)C1=O [Example A-215] | 40 | 10 | 0 | 20 | 20 | 0 | 0 | 0 |
| CCc1ccc(Oc2nc3c(Cl)c(OC)ccc3s2)cc1C1=C(O)C(C)(C)OC(C)(C)C1=O [Example A-216] | 80 | 60 | 70 | 70 | 70 | 30 | 0 | 10 |
| CCc1ccc(Oc2nc3cc(OC)ccc3s2)cc1C1=C(O)C(C)(C)OC(C)(C)C1=O [Example A-217] | 70 | 60 | 50 | 60 | 40 | 30 | 0 | 60 |
| CCc1ccc(Oc2nc3ccc(OC(F)(F)F)cc3s2)cc1C1=C(O)C(C)(C)OC(C)(C)C1=O [Example A-218] | 100 | 70 | 100 | 80 | 50 | 20 | 10 | 20 |
| CCc1ccc(Oc2nc3ccc(C(F)(F)F)cc3s2)cc1C1=C(O)C(C)(C)OC(C)(C)C1=O [Example A-219] | 100 | 90 | 100 | 90 | 90 | 50 | 30 | 80 |
| CCc1ccc(Oc2nc3cccc(C#N)c3s2)cc1C1=C(O)C(C)(C)OC(C)(C)C1=O [Example A-220] | 100 | 60 | 30 | 80 | 30 | 10 | 0 | 10 |
| CCc1ccc(Oc2nc3c(Cl)cc(Cl)cc3s2)cc1C1=C(O)C(C)(C)OC(C)(C)C1=O [Example A-221] | 100 | 80 | 50 | 90 | 70 | 60 | 40 | 60 |
